Data reported in patent US20230181482A1, “LIPIDS FOR DELIVERY OF NUCLEIC ACID SEGMENTS” (AstraZeneca AB, priority 2021, published 2023).

How the values were obtained:
[1] = LNP particle size by dynamic light scattering (Zetasizer Nano ZS); type: physicochemical; settings: N/P ratio 3:1, DMPE-PEG2000
Description: (§1) A solution of eGFP mRNA (purchased from TriLink Biotechnologies) in citrate buffer was prepared by mixing mRNA dissolved in MilliQ-water, 100 mM citrate buffer (pH 3) and MilliQ-water to give a solution of 50 mM citrate. Lipid solution in ethanol (99.5%) was prepared with four different lipid components: ionizable lipid (see Table 1); cholesterol (Sigma-Aldrich); DSPC (distearoyl phosphatidyl choline, Avanti Polar Lipids Inc); and a polymer-conjugated lipid (see Table 1). The ratio of lipids in all experiments was ionizable lipid/cholesterol/DSPC/polymer-conjugated lipid (50/38.5/10/1.5 mol %). The total concentration of lipids in all experiments was 12.5 mM.
(§2) The mRNA and lipid solutions were mixed in a NanoAssemblr (Precision Nanosystems, Vancouver, BC, Canada) microfluidic mixing system at a mixing ratio of Aq:EtOH=3:1 and a constant flow rate of 12 mL/min. The mRNA in citrate buffer solution was prepared such that, at the time of mixing the ratio between the nitrogen atoms on the ionizable lipid and phosphorus atoms (N/P ratio) on the mRNA chain was either 3:1 or 6:1 (see Table 1).
The first 0.2-0.35 mL and the last 0.05-0.1 mL of the LNP suspension prepared were discarded while the rest of the volume was collected as the sample fraction. The size of the mRNA lipid nanoparticles was determined by dynamic light scattering measurements using a Zetasizer Nano ZS from Malvern Instruments Ltd, giving directly the z-average particle diameter. The number-weighted particle size distributions and averages were calculated using a particle refractive index of 1.45.

Female BALB/c mice = experiment: eGFP expression in the liver at 24 hours after intravenous administration of LNP formulations to mouse (ELISA); type: in vivo; settings: LNP N/P 3:1, DMPE-PEG2000
Description: Female BALB/c mice were purchased (SPF (Beijing) Laboratory Animal Technology Co. Ltd.) and on arrival were caged in groups of 4 on corncob bedding, with normal diet and were provided tap drinking water ad libitum that was purified and autoclaved before being offered to the animal. The environment was maintained at a target temperature of […] and relative humidity of 40-80%, with a 12-hour light/dark cycle. Animals were acclimatised to the housing conditions for at least 7 days prior to any experimental procedures and were approximately 6-8 weeks of age at the start of dosing
Animals were assigned to respective groups such that the mean body weights for each treatment groups will be equal. N=4 for each treatment group.
Formulations 1, 3, 4, 5, and 6 from Example 58 were each dosed intravenously: Each mouse was removed from its cage and restrained, and then dosed with a slow IV bolus of a formulation in the lateral tail vein at a dose […] of 0.3 mg/kg.
All animals were sacrificed 24 hours after dosing and flowing blood sampling the liver for the animals dosed by the IV route and the liver and muscle at the dose site for the IM dosed animals were harvested for eGFP analysis by ELISA.
Additional LNP formulations were prepared according to the procedures described in Example 46. These formulations were tested using the same protocol as described herein. The results of eGFP expression in the liver at 24 hours after intravenous administration of the formulations were summarized in Tables 3, 4, 5 and 6 below.

[2] = mRNA encapsulation efficiency of LNP formulations (Quant-it Ribogreen assay with Triton-X100); type: physicochemical; settings: N/P ratio 3:1, DMPE-PEG2000
Description: as §1, §2
The final mRNA concentration and encapsulation efficiency percentage (% EE) was measured by Quant-it Ribogreen Assay Kit (ThermoFischer Scientific Inc.) using Triton-X100 to disrupt the LNPs. The mRNA encapsulation efficiency was determined according to the following equation: […]

| Compound | <d>N (nm) ([1]; Table 3) | <d>Z (nm) ([1]; Table 3) | % EE ([2]; Table 3) | <d>N (nm) ([1]; Table 6) | <d>Z (nm) ([1]; Table 6) | % EE ([2]; Table 6) | Liver eGFP protein (ng/g tissue) (Female BALB/c mice; Table 3, 0.3 mg/kg) | Liver eGFP protein (ng/g tissue) (Female BALB/c mice; Table 6, 0.3 mg/kg) | also measured |
| --- | --- | --- | --- | --- | --- | --- | --- | --- | --- |
| CCCCCC(CCCCC)CCOC(=O)CCCCCCCCCC(CCCCC(=O)OCCC(CCCCC)CCCCC)NC1CC2(COC2)C1 (stereo not shown) [Compound 49, bis(3-pentyloctyl) 6-((2-oxaspiro[3.3]heptan-6-yl)amino)hexadecanedioate] |  |  |  | 55 nm | 72 nm | 94% |  | 3934.6 ng/g tissue |  |
| CCCCCC(CCCCC)CCOC(=O)CCCCCCCCC(CCCCCCCCC(=O)OCCC(CCCCC)CCCCC)NC1CCOCC1 [Compound 15, bis(3-pentyloctyl) 10-((tetrahydro-2H-pyran-4-yl)amino)nonadecanedioate] |  |  |  |  |  |  |  |  | <d>N (nm) ([1]; Table 4): 72 nm; <d>Z (nm) ([1]; Table 4): 89 nm; Liver eGFP protein (ng/g tissue) (Female BALB/c mice; Table 4, 0.3 mg/kg): 829.4 ng/g tissue; % EE ([2]; Table 4): 97% |
| CCCCCCCCC(CCCCCCCC)OC(=O)CCCCCCCC(CCCCCCCC(=O)OCC(C)CCCCCCC)NCC1CCOC1 (stereo not shown) [Compound 21, 1-(heptadecan-9-yl) 17-(2-methylnonyl) 9-(((tetrahydrofuran-3-yl)methyl)amino)heptadecanedioate] |  |  |  |  |  |  |  |  | <d>N (nm) ([1]; Table 5): 57 nm; <d>Z (nm) ([1]; Table 5): 72 nm; Liver eGFP protein (ng/g tissue) (Female BALB/c mice; Table 5, 0.3 mg/kg): 4103.6 ng/g tissue; % EE ([2]; Table 5): 97% |
| CCCCCCCCC(CC)OC(=O)CCCCCCCC(CCCCCCCC(=O)OC(CCCCCCCC)CCCCCCCC)NCC1COC1 (stereo not shown) [Compound 41, 1-(heptadecan-9-yl) 17-(undecan-3-yl) 9-((oxetan-3-ylmethyl)amino)heptadecanedioate] |  |  |  |  |  |  |  |  | <d>N (nm) ([1]; Table 5): 54 nm; <d>Z (nm) ([1]; Table 5): 69 nm; Liver eGFP protein (ng/g tissue) (Female BALB/c mice; Table 5, 0.3 mg/kg): 7390.2 ng/g tissue; % EE ([2]; Table 5): 98% |
| CCCCCCCCCCC(C)OC(=O)CCCCCC(CCCCCCCC(=O)OC(CCCCCCCC)CCCCCCCC)NC1CC2(COC2)C1 (stereo not shown) [Compound 56, 1-(dodecan-2-yl) 15-(heptadecan-9-yl) 7-((2-oxaspiro[3.3]heptan-6-yl)amino)pentadecanedioate] |  |  |  | 58 nm | 73 nm | 96% |  | 10270.4 ng/g tissue |  |
| CCCCCC(CCCCC)CCOC(=O)CCCCCCCC(CCCCCCCC(=O)OCCC(CCCCC)CCCCC)NCC1COCCO1 (stereo not shown) [Compound 9, bis(3-pentyloctyl) 9-(((1,4-dioxan-2-yl)methyl)amino)heptadecanedioate] | 61 nm | 81 nm | 93% |  |  |  | 3160.9 ng/g tissue |  |  |

Now from value to compound, other results behind:

| <d>N (nm) ([1]; Table 3) | <d>Z (nm) ([1]; Table 3) | % EE ([2]; Table 3) | <d>N (nm) ([1]; Table 6) | <d>Z (nm) ([1]; Table 6) | % EE ([2]; Table 6) | Compound | Liver eGFP protein (ng/g tissue) (Female BALB/c mice; Table 3, 0.3 mg/kg) | Liver eGFP protein (ng/g tissue) (Female BALB/c mice; Table 6, 0.3 mg/kg) | also measured |
| --- | --- | --- | --- | --- | --- | --- | --- | --- | --- |
| 54 nm | 77 nm | 94% |  |  |  | CCCCCC(CCCCC)CCOC(=O)CCCCCCCC(CCCCCCCC(=O)OCCC(CCCCC)CCCCC)NCCC1CCOCC1 [Compound 7, bis(3-pentyloctyl) 9-((2-(tetrahydro-2H-pyran-4-yl)ethyl)amino)heptadecanedioate] | 6526.4 ng/g tissue |  |  |
|  |  |  | 62 nm | 81 nm | 95% | CCCCCCCCCC(=O)OCCCCCCCC(CCCCCCCC(=O)OC(CCCCCCCC)CCCCCCCC)NC1CC2(COC2)C1 (stereo not shown) [Compound 54, Heptadecan-9-yl 9-((2-oxaspiro[3.3]heptan-6-yl)amino)-16-(decanoyloxy)hexadecanoate] |  | 10704.5 ng/g tissue |  |
| 59 nm | 77 nm | 87% |  |  |  | CCCCCC(CCCCC)CCOC(=O)CCCCCCCC(CCCCCCCC(=O)OCCC(CCCCC)CCCCC)NCC1CCCCO1 (stereo not shown) [Compound 6, bis(3-pentyloctyl) 9-(((tetrahydro-2H-pyran-2-yl)methyl)amino)heptadecanedioate] | 3621.3 ng/g tissue |  |  |
|  |  |  | 51 nm | 65 nm | 97% | CCCCCCCCC(CCC)OC(=O)CCCCCCCC(CCCCCCCC(=O)OC(CCCCCCCC)CCCCCCCC)NC1CC2(COC2)C1 (stereo not shown) [Compound 50, 1-(dodecan-4-yl) 17-(heptadecan-9-yl) 9-((2-oxaspiro[3.3]heptan-6-yl)amino)heptadecanedioate] |  | 7410.4 ng/g tissue |  |
